Reference: PubChem BioAssay AID1963984 (Molecular Pharmacology Branch, DTP, NCI, 2024)

Test system: 233499-124-R-J3-PDC spheroids with HUVEC/MSC, viability
Experiment: Anticancer human tumor 233499-124-R-J3-PDC patient-derived colon adenocarcinoma cell line growth inhibition [PI3K]
Conditions: for IC50: curve of first compound; for viability, T/C: stronger effect = lower value; active means viability on the fitted dose curve at most 10% of control; inactive means the rest
Outline: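 Three cell types, namely tumor cells, endothelial cells and mesenchymal stem cells, formed each spheroid. Combinations with four PI3K inhibitors were screened at clinically achievable concentrations decreasing by half-log, and spheroid viability was recorded.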

[1] = second compound 0.0316 µM, first compound 0.0316 µM
[2] = second compound 0.0316 µM, first compound 0.1 µM
[3] = second compound 0.0316 µM, first compound 0.316 µM
[4] = second compound 0.0316 µM, first compound 1 µM
[5] = second compound 0.0316 µM, first compound 3.16 µM
[6] = second compound 0.0316 µM, first compound 10 µM
[7] = second compound 0.1 µM, first compound 0.0316 µM
[8] = second compound 0.1 µM, first compound 0.1 µM
[9] = second compound 0.1 µM, first compound 0.316 µM
[10] = second compound 0.1 µM, first compound 1 µM
[11] = second compound 0.1 µM, first compound 3.16 µM
[12] = second compound 0.1 µM, first compound 10 µM
[13] = second compound 0.316 µM, first compound 0.0316 µM
[14] = second compound 0.316 µM, first compound 0.1 µM
[15] = second compound 0.316 µM, first compound 0.316 µM
[16] = second compound 0.316 µM, first compound 1 µM
[17] = second compound 0.316 µM, first compound 3.16 µM
[18] = second compound 0.316 µM, first compound 10 µM
[19] = second compound 1 µM, first compound 0.0316 µM
[20] = second compound 1 µM, first compound 0.1 µM
[21] = second compound 1 µM, first compound 0.316 µM
[22] = second compound 1 µM, first compound 1 µM
[23] = second compound 1 µM, first compound 3.16 µM
[24] = second compound 1 µM, first compound 10 µM
[25] = second compound 3.16 µM, first compound 0.0316 µM
[26] = second compound 3.16 µM, first compound 0.1 µM
[27] = second compound 3.16 µM, first compound 0.316 µM
[28] = second compound 3.16 µM, first compound 1 µM
[29] = second compound 3.16 µM, first compound 3.16 µM
[30] = second compound 3.16 µM, first compound 10 µM
[31] = second compound 10 µM, first compound 0.0316 µM
[32] = second compound 10 µM, first compound 0.1 µM
[33] = second compound 10 µM, first compound 0.316 µM
[34] = second compound 10 µM, first compound 1 µM
[35] = second compound 10 µM, first compound 3.16 µM
[36] = second compound 10 µM, first compound 10 µM
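Further: spheroids exposed to agents for seven days before readout.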
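Wherever viability, T/C is given: percent viability relative to DMSO vehicle control taken as 100%.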

C#Cc1c(F)ccc2cc(O)cc(-c3ncc4c(N5CC6CCC(C5)N6)nc(OCC56CCCN5CC(F)C6)nc4c3F)c12 (centres undefined) + Cc1nc(NC(=O)N2CCCC2C(N)=O)sc1-c1ccnc(C(C)(C)C(F)(F)F)c1
< 0.0316 µM: IC50 (second compound 10 µM)
5.78 µM: IC50 (second compound 1 µM)
0.807 µM: IC50 (second compound 3.16 µM)
inactive: viability, T/C [1] 91.5% | viability, T/C [2] 98.2% | viability, T/C [3] 79.3% | viability, T/C [4] 89.2% | viability, T/C [5] 81.2% | viability, T/C [6] 84.5% | viability, T/C [7] 108% | viability, T/C [8] 107% | viability, T/C [9] 91.4% | viability, T/C [10] 77.7% | viability, T/C [11] 81% | viability, T/C [12] 104% | viability, T/C [13] 88.7% | viability, T/C [14] 83% | viability, T/C [15] 83% | viability, T/C [16] 77.1% | viability, T/C [17] 50.9% | viability, T/C [18] 82.4% | viability, T/C [19] 77.1% | viability, T/C [20] 54.9% | viability, T/C [21] 83.4% | viability, T/C [22] 64.4% | viability, T/C [23] 64.3% | viability, T/C [24] 37.7% | viability, T/C [25] 65.3% | viability, T/C [26] 72% | viability, T/C [27] 67% | viability, T/C [28] 43.6% | viability, T/C [29] 33.6% | viability, T/C [30] 61.2% | viability, T/C [31] 30.5% | viability, T/C [32] 39% | viability, T/C [33] 16.3% | viability, T/C [34] 26.1% | viability, T/C [35] 12.4%
active: viability, T/C [36] 4.04%
> 10 µM: IC50 (second compound 0.0316 µM) | IC50 (second compound 0.1 µM) | IC50 (second compound 0.316 µM)

CC1(C)CCC(Nc2ncc(C(F)(F)F)c(-c3c[nH]c4c(P(C)(C)=O)c(C#N)ccc34)n2)CN1 (centres undefined) + Cc1nc(NC(=O)N2CCCC2C(N)=O)sc1-c1ccnc(C(C)(C)C(F)(F)F)c1
< 0.0316 µM: IC50 (second compound 3.16 µM) | IC50 (second compound 10 µM)
0.0326 µM: IC50 (second compound 0.1 µM)
0.0623 µM: IC50 (second compound 1 µM)
active: viability, T/C [12] 2.83% | viability, T/C [30] 0.85% | viability, T/C [36] 0.57%
0.0664 µM: IC50 (second compound 0.0316 µM)
0.154 µM: IC50 (second compound 0.316 µM)
inactive: viability, T/C [1] 65.2% | viability, T/C [2] 32% | viability, T/C [3] 32.9% | viability, T/C [4] 34.6% | viability, T/C [5] 25.1% | viability, T/C [6] 6.03% | viability, T/C [7] 51.6% | viability, T/C [8] 41.4% | viability, T/C [9] 29.3% | viability, T/C [10] 25.1% | viability, T/C [11] 19.8% | viability, T/C [13] 54.8% | viability, T/C [14] 76.9% | viability, T/C [15] 23.8% | viability, T/C [16] 31.1% | viability, T/C [17] 16.6% | viability, T/C [18] 3.57% | viability, T/C [19] 69% | viability, T/C [20] 34.2% | viability, T/C [21] 24% | viability, T/C [22] 21.9% | viability, T/C [23] 29.1% | viability, T/C [24] 2.22% | viability, T/C [25] 52.1% | viability, T/C [26] 34.9% | viability, T/C [27] 31% | viability, T/C [28] 18.4% | viability, T/C [29] 15.9% | viability, T/C [31] 16.1% | viability, T/C [32] 16.2% | viability, T/C [33] 25.9% | viability, T/C [34] 27.1% | viability, T/C [35] 10.1%
